Reference: patent US10456434B2, “Extracts obtained from cell line cultures from plants belonging to the Oleaceae family (e.g. Syringa vulgaris), their preparation and use” (CRODA ITALIANA S. P. A., priority 2005, dated 2019)

Legend:
[1] = Metal chelating activity (spectrophotometric), Fe3+; format: binding; settings: chelation equilibrium constant, calculated for a pure phenylpropanoid
Description: The chelating activities of Syringa vulgaris extracts, verbascoside and isoverbascoside in relation to Fe^2+, Fe^3+, Cu^2+ and Ni^2+ metal ions has been determined by means of spectrophotometric measurements using a Shimadzu 1770 UV spectrophotometer. The activities of chelating agents depends on the association constant (equilibrium) of their reactions with the metals according to the following reaction:
[formula] wherein Keq is the equilibrium constant equal to the ratio of concentrations at equilibrium of a complex and product of equilibrium concentrations of metal ions and a chelator:
[formula] The method used for determining chelating activity is well documented in the literature (Korkina L G, Afarras'er IB. Antioxidant and chelating properties of flavonoids. Adv. Pharmacol., 1997, 38:151-63). The results are expressed as Keg (M^−1) calculated for a pure phenylpropanoid. This way the chelating activity against ferrous (Fe II), ferric (Fe III), copper (Cu II) and nickel ions has been calculated.

[2] = system: PC12 cells; test: Protection against oxidative stress induced cell death in PC12 cells; format: cell-based, rat; settings: 72 hours
Description: This assay has the aim of determining the protective capacity, of Syringa vulgaris extracts, in relation to oxidative stress induced cell death in rat pheochromocytoma cell cultures (PC12 cell line).
The assay has been performed as described in the literature (Echevery C. et al. Cytoprotection by neutral fraction of tannat red wine against oxidative stress-induced cell death. J. Agric. Food Chem., 2004, 52(24): 7395-9. Ochiai T. et al. Crocin prevents the death of rat pheo-chromycitoma (PC12) cells by its antioxidant effects stronger than those of alpha-tocopherol. Neurosci. Lett., 2004, 362(1):61-4).
The results obtained are summarised in table 11, and are expressed as the ratio between the numbers of viable cells after 72 hours in the samples with respect to control.

[3] = system: Trycophyton rubrum ATCC 28188; test: Multiple dilution antimycotic assay, Trycophyton rubrum; format: cell-based; settings: assayed at 0.625-5 mg/ml
Description: With the aim of identifying any potential antifungal activity in the Syringa vulgaris extracts, microbiological assays have been prepared, generally known as multiple dilution assays. Such assays have been performed using the following fungal strains: Trycophyton rubrum ATCC 28188 and Malassezia furfur ST 8036. Syringa vulgaris Extracts 1 and 2, verbascoside and isoverbascoside have been assayed at concentrations of […], 1.25 mg/ml, 2.5 mg/ml and 5 mg/ml. The fungal strains used for testing have been inoculated into culture-broth (in Tryptone soy broth medium, for Malassezia furfur the culture medium has been supplemented with 2 ml/100 ml of olive oil) containing Syringa vulgaris extracts 1 and 2, verbascoside and isoverbascoside at the concentrations described above. In parallel with these tests, culture broths containing the microbial strain alone have been prepared (controls). The culture-broths have, been incubated at 30° C. for a period of 28 days. Samples of the various culture-broths have been taken at 0, 7, 14, 21 and 28 days, with the aim of counting the number of CFU/ml in relation to the various fungal strains, by plating the cultures on solid medium. A certain number of serial dilutions have been prepared for each sample in order to determine the fungal load of each culture-broth. Each dilution has been assayed in triplicate on solid medium. […]

[4] = Superoxide anion chemiluminescent assay (hypoxanthine/xanthine oxidase); format: biochemical; settings: mean of 6 independent assays
Description: (§1) The superoxide anion has been measured by a chemiluminescent assay based on the hypoxanthine (HPX)/xanthine oxidase (XOD) reaction using the Lumimax Superoxide Anion Detection Kit (Stratagene, La Jolla, Calif., USA) and following the manufacturer's instructions. Hydroxyl radical scavenger activity has been measured by means of the Fenton reaction for the production of hydroxyl radicals and chemiluminescent dosage (using a Victor^3 chemiluminometer, Wallac, Finland) with luminol. Peroxynitrite ions have been determined by means of dosage with a spontaneous generator of peroxynitrites (3-morpholinosidnonimine hydrochloride; SIN-1) and a stable reagent for the nitroxyl ions (2-(4-carboxyphenyl)-4,4,5,5-tetramethylimidazoline-1-oxyl-3-oxide potassium salt PTIO spin trap) then dosed by means of electron spin resonance (ESR) using a. Nippon Denshi JES-FR30.
(§2) Extract 1 and Extract 2 listed in Table are derived from Syringa vulgaris cell cultures. […] The results are expressed as the concentration inhibiting 50% of activity (IC50). The values reported are the means of 6 independent assays.

[5] = Peroxynitrite assay (SIN-1, PTIO spin trap, ESR); format: biochemical; settings: mean of 6 independent assays
Description: as §1, §2

[6] = Fe2+ induced lipid peroxidation (thiobarbituric acid); format: biochemical; settings: mean of 6 independent assays
Description: as §1, with “Syringa vulgaris Extracts 1 and 2, prepared as described in examples 1 and 2, have been used to assess in vitro antioxidant action with specific oxygen radical generating systems such as the superoxide anion (O2^−), the hydroxyl radical (HO), the peroxynitrite radical (ONOO^−) and the inhibition of lipid peroxidation. The” for “The”, “JES-FR30. […].” for “JES-FR30.”
Extract 1 and Extract 2 listed in Table are derived from Syringa vulgaris cell cultures. In said extracts, verbascoside is present at 0.82% and 35% by weight respectively. […]

[7] = system: A549 cells; test: Oxidative stress (ROS, DCF fluorescence) in A549 cell cultures; format: cell-based, human; settings: 20 mM, A549, galactose oxidative stress
Description: 10×10^5 A549 cells (ATCC-CCL195) have been seeded into wells with 3 ml of DMEM/medium (HAM'S F12K) with 10% FCS and incubated at 37° C. in a 5% CO2, water vapour saturated atmosphere. After 24 hours the culture medium is replaced by medium supplemented with 5.55 mM galactose, which is left in contact with the cells for 20 hours. The medium is once again replaced with medium containing galactose in the presence or absence of the test compound. After 5 hours, quantitative measurement of the ROSs is performed by washing the cells with phosphate buffer and then incubating them with 30 μM DCF-DA in buffer solution. At the end of a 15 minute incubation, excess DCF-DA is removed from the cells by washing, prior to measuring the fluorescence emitted.
Antioxidant activity measurements are performed using a (Hitachi F3010) spectrophotometer with excitation at 488 nm and measuring emission at 525 nm, and values are expressed in pmoles, by extrapolation from the calibration curve constructed using known quantities of DCF, in relation to total cellular protein. Values are thus expressed in % ages with respect to the ROS, content of the cells not subjected to oxidative stress, to which are assigned a value of 100.
Syringa vulgaris Extracts 1 and 2 and ascorbic acid have been dissolved in phosphate buffer.

Structure (SMILES)	Fe^3+ (Keq, M^−1) [1]	Ratio of viable treated cells over control ([2]; 100 μg/ml)	Ratio of viable treated cells over control ([2]; 500 μg/ml)	Ratio of viable treated cells over control ([2]; 1000 μg/ml)	antimycotic activity towards Trycophyton rubrum (in words) [3]	Superoxide radical (IC50) [4]	Peroxynitrite radical (IC50) [5]	Lipid peroxidation (IC50) [6]	ROS level (%) [7]
CC1OC(OC2C(O)C(COC(=O)C=Cc3ccc(O)c(O)c3)OC(OCCc3ccc(O)c(O)c3)C2O)C(O)C(O)C1O [Isoverbascoside, b-(3,4-dihydroxyphenyl)-ethyl-O-α-L-ramnopyranosyl(1″-3′)-b-D-(6′-O-caffeoil)glucopyranoside]	130000 ± 40000 M⁻¹	4	10	10	activity comparable to Extract 1				
C[C@@H]1O[C@@H](O[C@@H]2[C@@H](O)[C@H](OCCc3ccc(O)c(O)c3)O[C@H](CO)[C@H]2OC(=O)/C=C/c2ccc(O)c(O)c2)[C@H](O)[C@H](O)[C@H]1O [Verbascoside, b-(3,4-dihydroxyphenyl)-ethyl-O-α-L-ramnopyranosyl (1″-3′)-b-D-(4′-O-caffeoil)-glucopyranoside]	120000 ± 50000 M⁻¹				activity comparable to Extract 1	3.1 µg/mL	1.6 µg/mL	7.4 µg/mL	85 ± 7 %
